Laboratory results reported in the supplement of paper PMC10307832.

Legend:
Test in all cases: relative viability (nuclei count vs DMSO), 5 days (fraction); higher = more cells survive
AZ505 + Olaparib = compound: C1CCC(CC1)N(CCNCCC2=C3C(=C(C=C2)O)NC(=O)CO3)C(=O)CCNCCC4=CC(=C(C=C4)Cl)Cl [AZ505] + O=C(c1cc(Cc2n[nH]c(=O)c3ccccc23)ccc1F)N1CCN(C(=O)C2CC2)CC1 [Olaparib] (partner 8 µM)
Summary of the method: (§1)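 Nuclei were stained with Hoechst during a one-step fixation (final 0.05% Triton X-100, 1% formaldehyde, 1 ug/ml Hoechst) carried out 5 days after dosing, then counted on 4× images. The cells, lung cancer lines in 1536-well plates, had been dosed by pin tool the day after seeding with one drug alone or a fixed anchor-drug dose plus five library-drug doses (not always all listed) in √10 steps. Relative viability is the nuclei count in treated wells divided by that in vehicle wells, and each value is the median of duplicate plates.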

Dactolisib + Linsitinib = compound: Cn1c(=O)n(-c2ccc(C(C)(C)C#N)cc2)c2c3cc(-c4cnc5ccccc5c4)ccc3ncc21 [Dactolisib] + C[C@]1(O)C[C@@H](c2nc(-c3ccc4ccc(-c5ccccc5)nc4c3)c3c(N)nccn32)C1 [Linsitinib] (partner 1 µM)
Summary of the method: as §1

AZ505 + Alpelisib = compound: C1CCC(CC1)N(CCNCCC2=C3C(=C(C=C2)O)NC(=O)CO3)C(=O)CCNCCC4=CC(=C(C=C4)Cl)Cl [AZ505] + Cc1nc(NC(=O)N2CCC[C@H]2C(N)=O)sc1-c1ccnc(C(C)(C)C(F)(F)F)c1 [Alpelisib] (partner 2 µM)
Summary of the method: as §1

Dactolisib + Bortezomib = compound: Cn1c(=O)n(-c2ccc(C(C)(C)C#N)cc2)c2c3cc(-c4cnc5ccccc5c4)ccc3ncc21 [Dactolisib] + CC(C)C[C@H](NC(=O)[C@H](Cc1ccccc1)NC(=O)c1cnccn1)B(O)O [Bortezomib] (partner 0.002 µM)
Summary of the method: as §1

Cell Line	relative viability (AZ505 + Olaparib; first compound 0.08 µM)	relative viability (AZ505 + Olaparib; first compound 0.8 µM)	relative viability (AZ505 + Olaparib; first compound 2.53 µM)	relative viability (AZ505 + Olaparib; first compound 8 µM)	relative viability (Dactolisib + Linsitinib; first compound 0.002 µM)	relative viability (Dactolisib + Linsitinib; first compound 0.006325 µM)	relative viability (Dactolisib + Linsitinib; first compound 0.02 µM)	relative viability (Dactolisib + Linsitinib; first compound 0.06325 µM)	relative viability (Dactolisib + Linsitinib; first compound 0.2 µM)	relative viability (AZ505 + Alpelisib; first compound 0.08 µM)	relative viability (AZ505 + Alpelisib; first compound 0.253 µM)	relative viability (AZ505 + Alpelisib; first compound 0.8 µM)	relative viability (AZ505 + Alpelisib; first compound 2.53 µM)	relative viability (AZ505 + Alpelisib; first compound 8 µM)	relative viability (Dactolisib + Bortezomib; first compound 0.002 µM)	relative viability (Dactolisib + Bortezomib; first compound 0.006325 µM)	relative viability (Dactolisib + Bortezomib; first compound 0.02 µM)	relative viability (Dactolisib + Bortezomib; first compound 0.06325 µM)	relative viability (Dactolisib + Bortezomib; first compound 0.2 µM)	relative viability (AZ505 + Olaparib; first compound 0.253 µM)
NCI-H596	0.743	0.704	0.722	0.598	1.18	0.935	0.924	0.523	0.387	0.483	0.453	0.49	0.626	0.52	0.939	0.989	0.908	0.769	0.357	–
NCI-H322M	0.576	0.707	0.768	0.844	0.939	0.826	0.84	0.586	0.442	0.757	0.774	0.688	0.844	0.79	1.21	1.24	1.13	1.07	0.838	–
NCI-H1299	0.897	0.932	0.885	0.876	0.979	0.929	1.01	0.573	0.608	0.986	1.06	1.01	0.978	0.998	1.02	1.05	1.05	0.957	0.7	0.925
NCI-H2228	0.669	0.524	0.863	0.481	0.659	0.488	0.436	0.323	0.193	0.627	0.554	0.677	0.69	0.748	1.08	0.81	0.541	0.259	0.18	0.627
IA-LM	0.78	0.807	0.902	0.889	0.681	0.613	0.6	0.124	0.206	0.793	1.05	0.925	0.723	1	0.828	0.691	0.511	0.145	0.0972	0.846
NCI-H647	0.521	0.547	0.533	0.706	1.15	0.898	0.736	0.192	0.146	1.04	1.46	1.05	1.07	1.08	0.868	0.798	0.42	0.193	0.143	0.739
NCI-H2085	0.715	0.654	0.735	0.729	1.03	0.714	0.636	0.361	0.381	0.825	0.905	0.884	1.01	1.01	1.1	0.884	0.97	0.662	0.376	0.797
NCI-H727	0.653	0.667	0.724	0.662	0.271	0.317	0.266	0.213	0.37	0.535	0.621	0.505	0.598	0.694	1.03	0.58	0.872	0.35	0.267	0.675
NCI-H441	0.527	0.586	0.57	0.621	0.594	0.592	0.435	0.343	0.286	0.721	0.698	0.599	0.671	0.761	0.523	0.457	0.305	0.157	0.196	0.503
LOU-NH91	0.87	0.886	0.903	0.894	0.712	0.888	0.837	0.588	0.527	0.622	0.636	0.611	0.631	0.742	0.526	0.502	0.49	0.458	0.43	0.897
NCI-H3122	0.617	0.618	0.629	0.622	0.982	0.993	0.989	0.671	0.53	0.79	0.677	0.772	0.721	0.836	1	0.987	1.11	1.09	0.927	0.689
NCI-H460	0.365	0.388	0.46	0.477	0.933	0.654	0.434	0.0937	0.0501	0.458	0.559	0.485	0.507	0.469	1.28	1.11	0.984	0.106	0.0739	0.477
NCI-H650	0.386	0.425	0.497	0.356	1.26	0.752	0.697	0.576	0.415	1.03	1.31	1.03	1.14	1.21	0.884	0.774	0.834	0.653	0.3	0.462
NCI-H661	0.732	0.728	0.709	0.727	0.453	0.454	0.505	0.223	0.23	0.666	0.493	0.738	0.81	0.907	0.659	0.87	0.67	0.397	0.288	0.751
NCI-H1734	0.603	0.613	0.63	0.641	1.02	0.755	0.72	0.336	0.318	0.633	0.626	0.631	0.744	0.683	0.92	0.741	0.781	0.346	0.243	0.673
LXF-289	0.988	1.01	1.05	1.01	0.952	0.98	0.987	0.757	0.658	0.983	–	1.02	1.06	1.01	1.07	1.03	1.07	0.971	0.648	1.11
